Laboratory results published in patent publication US8168199B2, “Dipeptidyl peptidase IV inhibitors for the treatment of schizophrenia and depression” (priority 2000, dated 2012).

Key:
[1] = i.c.v. injection; cited from earlier work
rats = details: administered into the dorsal periaqueductal gray matter; cited from earlier work
[2] = system: Male WistarF/Han (WF) rats; assay: 1 h food-intake with Y1R antagonist BIBP3226, P32/98 and NPY (Example 4); format: in vivo, rat; details: i.c.v. BIBP3226 100 nmol
Experimental: (§1) Animals. Male WistarF/Han (WF) rats (Central Animal Laboratory, Hannover Medical School, Hannover, Germany, weighing 330±31 g±SD, were housed in a sound-proof, temperature controlled (24.0±0.5° C.) room under specific pathogen free conditions with a 12/12 h dark/light cycle (lights on at 07.00 with illumination level of 80 Lux). Food (Altromin lab chow pellets) and tap water were available ad libitum. Under ketamine/xylasine (100/5 mg/kg, i.p.) anesthesia, the rats were fixed in a Kopf stereotaxic frame and implanted with cannulae (Plastic One, Inc., Roanoke, Va., USA) above the lateral ventricle. All research and animal care procedures were approved by the Lower Saxony district government (Hannover, Germany) and followed principles described in the European Community's Council Directive of 24 Nov. 1986 (86/609/EEC).
(§2) Surgery and i.c.v. application. […]
(§3) Animals were randomly divided into eight experimental groups (n=6-8/group), which completed one SI test of anxiety: (1) aCSF+aCSF+aCSF; (2) BIBP+aCSF+aCSF; (3) aCSF+P32/98+aCSF; (4) BIBP+P32/98+aCSF; (5) aCSF+aCSF+NPY; (6) BIBP+aCSF+NPY; (7) aCSF+[…]+NPY; (8) BIBP+P32/98+NPY. […] The time spent in active social interaction (SI-time), 1 h, and 12 h food-intake were measured. […]
(§4) Statistical analysis. Data obtained from the measures SI time and 1 h food intake were analyzed by one-way (factor: “treatment”) ANOVA. […]

[3] = system: Male WistarF/Han (WF) rats; assay: Social interaction (SI) test with Y1R antagonist BIBP3226, P32/98 and NPY (Example 4); format: in vivo, rat
Experimental: as §1, §2, §3
Social interaction (SI) test. […] Behavior was monitored using a video camera placed above the field inside the testing/isolation box. The SI behavior of both rats was recorded on-line from a monitor placed outside on top of the box. The following parameters were scored by an observer (HPN) unaware of the substrain of rats: duration of time spent in sniffing, following, crawling under and over other rats, but not passive body contact (resting, sleeping). […]
as §4

dipeptidyl peptidase IV = target: T1, dipeptidyl peptidase IV (Homo sapiens, UniProt P27487); details: human serum incubated with neuropeptide Y or peptide YY; cited from earlier work
T1 construct: from tissue; host or cells: human serum
T1 sequence (P27487 39-766 limits assumed): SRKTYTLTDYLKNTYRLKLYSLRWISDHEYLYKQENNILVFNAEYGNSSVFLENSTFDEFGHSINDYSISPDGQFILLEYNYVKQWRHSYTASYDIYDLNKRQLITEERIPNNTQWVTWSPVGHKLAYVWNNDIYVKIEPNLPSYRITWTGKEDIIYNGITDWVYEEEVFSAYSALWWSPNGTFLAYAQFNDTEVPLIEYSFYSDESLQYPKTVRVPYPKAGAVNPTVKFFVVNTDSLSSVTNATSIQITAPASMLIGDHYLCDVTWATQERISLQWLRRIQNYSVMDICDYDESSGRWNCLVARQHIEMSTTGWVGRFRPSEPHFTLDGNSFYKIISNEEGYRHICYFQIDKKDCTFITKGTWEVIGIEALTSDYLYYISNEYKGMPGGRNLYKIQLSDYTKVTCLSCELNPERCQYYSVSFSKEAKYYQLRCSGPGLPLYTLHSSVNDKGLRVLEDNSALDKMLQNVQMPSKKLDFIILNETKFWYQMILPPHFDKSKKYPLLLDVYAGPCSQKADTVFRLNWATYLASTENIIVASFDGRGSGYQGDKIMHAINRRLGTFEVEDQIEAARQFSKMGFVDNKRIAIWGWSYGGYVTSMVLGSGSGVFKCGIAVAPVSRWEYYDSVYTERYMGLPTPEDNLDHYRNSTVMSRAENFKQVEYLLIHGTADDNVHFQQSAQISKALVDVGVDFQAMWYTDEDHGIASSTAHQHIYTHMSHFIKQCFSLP

[4] = system: Male WistarF/Han (WF) rats; assay: 1 h and 12 h food-intake after i.c.v. P32/98 and NPY (Example 3); format: in vivo, rat; details: i.c.v. P32/98 5 pmol-500 nmol, NPY 50 pmol-1.6 nmol; dark cycle
Experimental: as §1, with “330-370 g,” for “330±31 g±SD,”
Surgery and i.c.v. application. For surgery, rats were anesthetized and prepared with i.c.v. cannulae (coordinates: A: −0.7 mm caudal, L: 1.4 mm lateral to bregma; and V3.2 mm ventral to the skull surface; tooth bar +3.0 above ear bars) using standard stereotaxic procedures as described in detail elsewhere (von Hörsten et al., 1998a, b, c). After a 7-day recovery period, successful ventricle cannulation was confirmed by an angiotensin drinking response (von Hörsten et al., 1998a). Rats showing a positive drinking response (n=59) were then habituated to experimental handling by daily sham injections for seven days.
Animals were randomly divided into two sets of four experimental groups (n=5-6/group), which completed different consecutive SI test of anxiety. […] The time spent in active social interaction (SI-time), 1 h and 12 h food-intake were measured. […]
Statistical analysis. Data from repeated observations (food intake) were analyzed by two-way analyses of variance for repeated measures (ANOVA) (factors: “substrain” and “food intake” as repeated measure). Data obtained from simple measures such as DPIV activity or SI time were analyzed by one-way (factor: “substrain”) ANOVA. […]

## NC(N)=NCCC[C@@H](NC(=O)C(c1ccccc1)c1ccccc1)C(=O)NCc1ccc(O)cc1 [BIBP3226]
[1]
  anxiety-related behavior in the elevated plus-maze test: anxiogenic-like effects
  locomotor effect in the elevated plus-maze test: without any locomotor deficit
rats
  time spent in active social interaction: decreased
[2]
  effect of Y1 R blockade on 1 h feeding effects: only partly affected
[3]; i.c.v. BIBP3226 100 nmol, P32/98 50 nmol, NPY 0.8 nmol
  effect of Y1 receptor antagonist pre-treatment on P32/98-induced potentiation of NPY anxiolysis (SI behavior): can block

## NCCCC[C@H](N)C(=O)N1CCCC1 [Lys-pyrrolidine]
Dipeptidyl peptidase IV
  formation of Tyr-Pro in serum: blocked

## Ile-Pro-Ile [diprotin A]
Dipeptidyl peptidase IV
  formation of Tyr-Pro in serum: blocked

## Rat neuropeptide Y1-36 [NPY, reference compound]
[4]
  amount of food eaten within 1 h: “u-shaped” dose-dependent feeding effect
[3]; i.c.v. 0.8 nmol
  SI-time, NPY alone: anxiolytic-like effect
